Measured values reported in patent publication EP4745135A1 (Gluetacs Therapeutics (Shanghai) Co., Ltd., priority 2023, dated 2025).

Assays:
CK1α = target: T1, CK1α (Homo sapiens, UniProt P48729+Q96SW2); experiment: Western blot, degradation of substrate protein in hPBMCs; assay type: cell-based
T1 construct: effects of the compounds of the present disclosure on the expression of target proteins in cells; endogenous in cells; host or cells: human PBMCs (Milecell Biotechnologies)

IKZF1 = target: T2, IKZF1 (Homo sapiens, UniProt Q13422+Q96SW2); experiment: as above; assay type: cell-based
T2 construct: effects of the compounds of the present disclosure on the expression of target proteins in cells; endogenous in cells; host or cells: human PBMCs (Milecell Biotechnologies)

IKZF2 = target: T3, IKZF2 (Homo sapiens, UniProt Q96SW2+Q9UKS7); experiment: as above; assay type: cell-based
T3 construct: effects of the compounds of the present disclosure on the expression of target proteins in cells; endogenous in cells; host or cells: human PBMCs (Milecell Biotechnologies)

IKZF3 = target: T4, IKZF3 (Homo sapiens, UniProt Q96SW2+Q9UKT9); experiment: as above; assay type: cell-based
T4 construct: effects of the compounds of the present disclosure on the expression of target proteins in cells; endogenous in cells; host or cells: human PBMCs (Milecell Biotechnologies)

WEE1 = target: T5, WEE1 (Homo sapiens, UniProt P30291+Q96SW2); experiment: as above; assay type: cell-based
T5 construct: effects of the compounds of the present disclosure on the expression of target proteins in cells; endogenous in cells; host or cells: human PBMCs (Milecell Biotechnologies)

GSPT1 = experiment: as above; assay type: cell-based, Human
[1] = target: T6, human Cereblon WT GST-tagged protein (Homo sapiens, UniProt Q96SW2); experiment: CRBN-binding affinity, HTRF (CEREBLON BINDING kit); settings: for inhibition at 0.5 µM: read-out: Inhibition Rate at 0.5 µM (%); for inhibition at 2 µM: read-out: Inhibition Rate at 2 µM (%)
T6 construct: purchased CISBIO 64BDCRBNPEH

[2] = Western blot, 24 hours of compound treatment, compounds tested at 50 nM and 500 nM (concentration for the table not stated)
[3] = 24 hours treatment, compounds at 50 nM and 500 nM (concentration behind the class not stated)

T4 sequence (Q9UKT9 whole entry): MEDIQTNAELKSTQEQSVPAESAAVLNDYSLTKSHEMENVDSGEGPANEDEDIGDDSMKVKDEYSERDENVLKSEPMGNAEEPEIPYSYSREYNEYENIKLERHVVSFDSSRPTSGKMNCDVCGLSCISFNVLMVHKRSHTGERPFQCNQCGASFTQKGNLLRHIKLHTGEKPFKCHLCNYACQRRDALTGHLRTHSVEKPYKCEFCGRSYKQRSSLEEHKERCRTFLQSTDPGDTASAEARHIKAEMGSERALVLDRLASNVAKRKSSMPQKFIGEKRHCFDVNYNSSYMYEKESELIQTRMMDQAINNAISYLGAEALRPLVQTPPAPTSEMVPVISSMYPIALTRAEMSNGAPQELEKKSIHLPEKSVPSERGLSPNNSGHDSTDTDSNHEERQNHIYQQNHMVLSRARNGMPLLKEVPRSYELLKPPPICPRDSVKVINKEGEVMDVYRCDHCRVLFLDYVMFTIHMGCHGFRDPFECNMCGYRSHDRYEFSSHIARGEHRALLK
T4 sequence (Q96SW2 whole entry): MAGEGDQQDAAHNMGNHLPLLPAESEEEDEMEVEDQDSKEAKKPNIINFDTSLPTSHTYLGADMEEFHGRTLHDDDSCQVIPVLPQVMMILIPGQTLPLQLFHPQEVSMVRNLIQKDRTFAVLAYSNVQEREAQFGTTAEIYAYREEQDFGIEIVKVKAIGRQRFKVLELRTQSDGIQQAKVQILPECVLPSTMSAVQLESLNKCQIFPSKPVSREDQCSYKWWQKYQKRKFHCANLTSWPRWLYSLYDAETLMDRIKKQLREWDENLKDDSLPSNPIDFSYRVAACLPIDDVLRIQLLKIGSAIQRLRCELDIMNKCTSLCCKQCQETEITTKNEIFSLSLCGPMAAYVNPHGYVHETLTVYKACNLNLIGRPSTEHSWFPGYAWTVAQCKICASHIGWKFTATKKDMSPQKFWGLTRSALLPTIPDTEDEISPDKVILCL
T4 sequence (Q16531 whole entry partner): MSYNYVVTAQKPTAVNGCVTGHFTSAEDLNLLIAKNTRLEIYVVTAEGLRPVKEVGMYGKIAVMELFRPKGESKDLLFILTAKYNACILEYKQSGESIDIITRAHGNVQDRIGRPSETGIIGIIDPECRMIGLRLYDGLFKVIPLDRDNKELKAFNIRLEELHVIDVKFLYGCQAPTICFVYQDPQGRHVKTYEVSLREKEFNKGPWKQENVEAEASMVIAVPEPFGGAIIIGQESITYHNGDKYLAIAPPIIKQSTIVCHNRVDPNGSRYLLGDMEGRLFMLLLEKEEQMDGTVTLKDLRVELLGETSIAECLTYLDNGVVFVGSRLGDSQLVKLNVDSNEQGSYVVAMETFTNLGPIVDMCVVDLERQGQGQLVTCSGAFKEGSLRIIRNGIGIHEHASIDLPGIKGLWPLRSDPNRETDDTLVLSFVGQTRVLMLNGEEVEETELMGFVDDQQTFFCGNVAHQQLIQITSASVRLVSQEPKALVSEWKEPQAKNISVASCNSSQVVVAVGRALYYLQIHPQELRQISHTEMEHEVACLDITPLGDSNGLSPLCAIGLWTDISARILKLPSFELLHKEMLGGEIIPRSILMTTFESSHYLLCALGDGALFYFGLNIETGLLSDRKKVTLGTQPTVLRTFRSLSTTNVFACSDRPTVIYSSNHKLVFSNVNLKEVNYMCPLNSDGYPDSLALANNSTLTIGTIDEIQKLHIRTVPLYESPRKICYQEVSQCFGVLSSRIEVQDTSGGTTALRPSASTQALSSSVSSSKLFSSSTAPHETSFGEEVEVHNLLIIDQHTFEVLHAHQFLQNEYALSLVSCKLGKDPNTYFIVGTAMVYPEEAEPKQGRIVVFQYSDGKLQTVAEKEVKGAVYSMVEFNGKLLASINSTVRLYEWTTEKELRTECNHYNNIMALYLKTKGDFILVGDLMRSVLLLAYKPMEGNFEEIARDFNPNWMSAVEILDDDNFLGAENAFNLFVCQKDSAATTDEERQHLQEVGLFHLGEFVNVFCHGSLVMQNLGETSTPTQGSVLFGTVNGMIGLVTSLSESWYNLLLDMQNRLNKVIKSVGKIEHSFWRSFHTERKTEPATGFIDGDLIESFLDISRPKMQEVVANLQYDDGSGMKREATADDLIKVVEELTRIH
T5 sequence (P30291 whole entry): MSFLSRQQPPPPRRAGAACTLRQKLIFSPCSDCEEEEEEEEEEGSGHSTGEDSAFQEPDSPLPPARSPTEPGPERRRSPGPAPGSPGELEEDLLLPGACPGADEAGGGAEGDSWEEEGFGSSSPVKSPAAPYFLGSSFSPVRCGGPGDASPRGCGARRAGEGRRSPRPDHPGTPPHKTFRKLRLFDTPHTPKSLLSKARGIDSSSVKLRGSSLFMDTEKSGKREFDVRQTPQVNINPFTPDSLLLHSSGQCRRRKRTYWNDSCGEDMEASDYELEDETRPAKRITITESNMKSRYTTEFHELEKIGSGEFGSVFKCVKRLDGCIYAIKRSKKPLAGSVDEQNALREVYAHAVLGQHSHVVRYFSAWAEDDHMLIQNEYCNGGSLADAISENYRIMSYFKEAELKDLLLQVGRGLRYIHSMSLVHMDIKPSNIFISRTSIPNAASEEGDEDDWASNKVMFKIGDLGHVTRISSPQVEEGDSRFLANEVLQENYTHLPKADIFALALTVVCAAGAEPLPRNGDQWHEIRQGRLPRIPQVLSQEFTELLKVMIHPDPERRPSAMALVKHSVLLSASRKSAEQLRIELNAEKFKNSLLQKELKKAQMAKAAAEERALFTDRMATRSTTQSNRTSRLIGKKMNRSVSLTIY
T5 sequence (Q96SW2 whole entry): as the sequence (Q96SW2 whole entry) above
T5 sequence (Q16531 whole entry partner): as the sequence (Q16531 whole entry partner) above
T3 sequence (Q9UKS7 whole entry): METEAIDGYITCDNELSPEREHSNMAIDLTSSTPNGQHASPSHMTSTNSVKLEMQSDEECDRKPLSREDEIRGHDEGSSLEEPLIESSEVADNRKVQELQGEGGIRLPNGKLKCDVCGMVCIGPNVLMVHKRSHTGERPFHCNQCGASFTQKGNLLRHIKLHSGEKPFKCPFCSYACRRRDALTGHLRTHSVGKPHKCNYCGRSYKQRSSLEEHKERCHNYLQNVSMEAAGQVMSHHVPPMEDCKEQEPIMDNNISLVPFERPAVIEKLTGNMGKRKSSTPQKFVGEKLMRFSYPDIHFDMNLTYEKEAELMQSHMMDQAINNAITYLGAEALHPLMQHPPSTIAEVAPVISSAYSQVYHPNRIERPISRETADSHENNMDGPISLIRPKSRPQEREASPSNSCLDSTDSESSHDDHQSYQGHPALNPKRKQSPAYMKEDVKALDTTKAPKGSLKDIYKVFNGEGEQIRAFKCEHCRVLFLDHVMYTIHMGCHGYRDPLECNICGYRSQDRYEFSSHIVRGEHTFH
T3 sequence (Q96SW2 whole entry): as the sequence (Q96SW2 whole entry) above
T3 sequence (Q16531 whole entry partner): as the sequence (Q16531 whole entry partner) above
T2 sequence (Q13422 whole entry): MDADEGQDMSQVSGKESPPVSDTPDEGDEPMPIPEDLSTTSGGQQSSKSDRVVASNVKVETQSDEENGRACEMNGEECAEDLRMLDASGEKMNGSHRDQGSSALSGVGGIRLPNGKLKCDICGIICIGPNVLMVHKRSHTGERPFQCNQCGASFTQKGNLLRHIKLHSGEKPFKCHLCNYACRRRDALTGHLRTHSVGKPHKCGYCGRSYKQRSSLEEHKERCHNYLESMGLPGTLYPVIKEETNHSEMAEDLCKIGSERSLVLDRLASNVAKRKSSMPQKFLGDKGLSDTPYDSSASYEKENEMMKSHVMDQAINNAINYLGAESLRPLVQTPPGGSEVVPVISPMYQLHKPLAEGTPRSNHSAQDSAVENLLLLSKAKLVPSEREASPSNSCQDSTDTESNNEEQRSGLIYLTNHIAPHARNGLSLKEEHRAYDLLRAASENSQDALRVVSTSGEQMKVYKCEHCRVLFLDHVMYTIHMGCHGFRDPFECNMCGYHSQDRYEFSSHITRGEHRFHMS
T2 sequence (Q96SW2 whole entry): as the sequence (Q96SW2 whole entry) above
T2 sequence (Q16531 whole entry partner): as the sequence (Q16531 whole entry partner) above
T1 sequence (P48729 whole entry): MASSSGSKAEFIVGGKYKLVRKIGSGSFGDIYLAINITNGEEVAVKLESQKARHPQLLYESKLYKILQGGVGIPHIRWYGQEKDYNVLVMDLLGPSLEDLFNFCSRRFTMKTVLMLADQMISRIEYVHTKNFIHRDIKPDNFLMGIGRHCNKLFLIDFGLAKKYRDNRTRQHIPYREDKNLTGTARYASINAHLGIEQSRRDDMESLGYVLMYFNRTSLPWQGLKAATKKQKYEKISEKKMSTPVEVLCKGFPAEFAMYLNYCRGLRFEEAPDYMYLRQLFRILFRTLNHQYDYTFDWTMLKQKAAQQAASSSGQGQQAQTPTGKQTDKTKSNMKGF
T1 sequence (Q96SW2 whole entry): as the sequence (Q96SW2 whole entry) above
T1 sequence (Q16531 whole entry partner): as the sequence (Q16531 whole entry partner) above
T6 sequence (Q96SW2 whole entry): as the sequence (Q96SW2 whole entry) above

Structure (SMILES) | inhibition at 0.5 µM [1] | inhibition at 2 µM [1] | CK1α substrate protein remaining % (CK1α; [2]) | IKZF 1 substrate protein remaining % (IKZF1; [2]) | IKZF2 substrate protein remaining % (IKZF2; [2]) | IKZF3 substrate protein remaining % (IKZF3; [2]) | Wee1 substrate protein remaining % (WEE1; [2]) | GSPT1 substrate protein remaining % (GSPT1; [2]) | CK1α substrate protein remaining % (CK1α; [3]) | IKZF 1 substrate protein remaining % (IKZF1; [3]) | IKZF2 substrate protein remaining % (IKZF2; [3]) | IKZF3 substrate protein remaining % (IKZF3; [3]) | Wee1 substrate protein remaining % (WEE1; [3]) | GSPT1 substrate protein remaining % (GSPT1; [3])
CC1(C)CCC(CN2C3CCC2CN(Cc2cccc4c2CN(C2CCC(=O)NC2=O)C4=S)C3)=C(c2ccc(Cl)cc2)C1 (stereo not drawn) [GT-08291, 3-(4-((8-((4'-chloro-5,5-dimethyl-3,4,5,6-tetrahydro-[1,1-biphenyl]-2-yl)methyl)-3,8-diazabicyclo[3.2.1]octan-3-yl)methyl)-1-thioxoisoindolin-2-yl)piperidine-2,6-dione] | 20 to 30% | 60 to 80% | A (0% ≤ substrate protein remaining % ≤ 80%) | B (80%< substrate protein remaining %≤ 100%) | B (80%< substrate protein remaining %≤ 100%) | B (80%< substrate protein remaining %≤ 100%) | A (0% ≤ substrate protein remaining % ≤ 80%) | A (0% ≤ substrate protein remaining % ≤ 80%) |  |  |  |  |  | 
O=C1CCC(N2Cc3cc(CN4CC5CCC(C4)N5c4cccc(Cl)c4Cl)ccc3C2=S)C(=O)N1 (stereo not drawn) [GT-08479, 3-(5-((8-(2,3-dichlorophenyl)-3,8-diazabicyclo[3.2.1]octan-3-yl)methyl)-1-thioxoisoindolin-2-yl)piperidine-2,6-dione] | 40 to 53% | 60 to 80% | B (80%< substrate protein remaining %≤ 100%) | B (80%< substrate protein remaining %≤ 100%) | B (80%< substrate protein remaining %≤ 100%) | B (80%< substrate protein remaining %≤ 100%) | B (80%< substrate protein remaining %≤ 100%) | A (0% ≤ substrate protein remaining % ≤ 80%) |  |  |  |  |  | 
O=C1CCC(N2Cc3cc(CN4CCN(c5ccc(F)cc5F)CC4)ccc3C2=S)C(=O)N1 (stereo not drawn) [GT-08613, 3-(5-((4-(2,4-difluorophenyl)piperazin-1-yl)methyl)-1-thioxoisoindolin-2-yl)piperidine-2,6-dione] | 60 to 80% | 80 to 100% | B (80%< substrate protein remaining %≤ 100%) | B (80%< substrate protein remaining %≤ 100%) | B (80%< substrate protein remaining %≤ 100%) | B (80%< substrate protein remaining %≤ 100%) | B (80%< substrate protein remaining %≤ 100%) | A (0% ≤ substrate protein remaining % ≤ 80%) |  |  |  |  |  | 
O=C1CCC(N2Cc3c(CN4CCC(c5cccs5)CC4)cccc3C2=S)C(=O)N1 (stereo not drawn) [GT-08320, 3-(4-((4-(thiophen-2-yl)piperidin-1-yl)methyl)-1-thioxoisoindolin-2-yl)piperidine-2,6-dione] | 40 to 53% | 60 to 80% |  |  |  |  |  |  | B (80%< substrate protein remaining %≤ 100%) | B (80%< substrate protein remaining %≤ 100%) | B (80%< substrate protein remaining %≤ 100%) | A (0% ≤ substrate protein remaining % ≤ 80%) | A (0% ≤ substrate protein remaining % ≤ 80%) | B (80%< substrate protein remaining %≤ 100%)
O=C1CCC(N2Cc3cc(CN4CCN(c5ccc(F)c(F)c5)CC4)ccc3C2=S)C(=O)N1 (stereo not drawn) [GT-08627, 3-(5-((4-(3,4-difluorophenyl)piperazin-1-yl)methyl)-1-thioxoisoindolin-2-yl)piperidine-2,6-dione] | 60 to 80% | 80 to 100% | B (80%< substrate protein remaining %≤ 100%) | B (80%< substrate protein remaining %≤ 100%) | B (80%< substrate protein remaining %≤ 100%) | B (80%< substrate protein remaining %≤ 100%) | B (80%< substrate protein remaining %≤ 100%) | A (0% ≤ substrate protein remaining % ≤ 80%) |  |  |  |  |  | 

The next lines start with results.

inhibition at 0.5 µM [1] | inhibition at 2 µM [1] | Structure (SMILES) | CK1α substrate protein remaining % (CK1α; [2]) | IKZF 1 substrate protein remaining % (IKZF1; [2]) | IKZF2 substrate protein remaining % (IKZF2; [2]) | IKZF3 substrate protein remaining % (IKZF3; [2]) | Wee1 substrate protein remaining % (WEE1; [2]) | GSPT1 substrate protein remaining % (GSPT1; [2]) | CK1α substrate protein remaining % (CK1α; [3]) | IKZF 1 substrate protein remaining % (IKZF1; [3]) | IKZF2 substrate protein remaining % (IKZF2; [3]) | IKZF3 substrate protein remaining % (IKZF3; [3]) | Wee1 substrate protein remaining % (WEE1; [3]) | GSPT1 substrate protein remaining % (GSPT1; [3])
60 to 80% | 80 to 100% | Cc1cc2c(N3CCN(Cc4cccc5c4CN(C4CCC(=O)NC4=O)C5=S)CC3)ncnc2s1 (stereo not drawn) [GT-08914, 3-(4-((4-(6-methylthieno[2,3-d]pyrimidin-4-yl)piperazin-1-yl)methyl)-1-thioxoisoindolin-2-yl)piperidine-2,6-dione] |  |  |  |  |  |  | B (80%< substrate protein remaining %≤ 100%) | B (80%< substrate protein remaining %≤ 100%) | B (80%< substrate protein remaining %≤ 100%) | B (80%< substrate protein remaining %≤ 100%) | A (0% ≤ substrate protein remaining % ≤ 80%) | B (80%< substrate protein remaining %≤ 100%)
60 to 80% | 80 to 100% | O=C1CCC(N2Cc3cc(CN4CCN(c5ccncc5Cl)CC4)ccc3C2=S)C(=O)N1 (stereo not drawn) [GT-09238, 3-(5-((4-(3-chloropyridin-4-yl)piperazin-1-yl)methyl)-1-thioxoisoindolin-2-yl)piperidine-2,6-dione] | A (0% ≤ substrate protein remaining % ≤ 80%) | B (80%< substrate protein remaining %≤ 100%) | A (0% ≤ substrate protein remaining % ≤ 80%) | A (0% ≤ substrate protein remaining % ≤ 80%) | B (80%< substrate protein remaining %≤ 100%) | A (0% ≤ substrate protein remaining % ≤ 80%) |  |  |  |  |  | 
20 to 30% | 60 to 80% | O=C1CCC(N2Cc3c(CN4CCN(c5ncnc6sc(-c7ccccc7)cc56)CC4)cccc3C2=S)C(=O)N1 (stereo not drawn) [GT-08919, 3-(4-((4-(6-phenylthieno[2,3-d]pyrimidin-4-yl)piperazin-1-yl)methyl)-1-thioxoisoindolin-2-yl)piperidine-2,6-dione] |  |  |  |  |  |  | B (80%< substrate protein remaining %≤ 100%) | B (80%< substrate protein remaining %≤ 100%) | B (80%< substrate protein remaining %≤ 100%) | B (80%< substrate protein remaining %≤ 100%) | A (0% ≤ substrate protein remaining % ≤ 80%) | B (80%< substrate protein remaining %≤ 100%)
53 to 60% | 80 to 100% | O=C1CCC(N2Cc3cc(CN4CCN(c5ncnc6sc7c(c56)CCCC7)CC4)ccc3C2=S)C(=O)N1 (stereo not drawn) [GT-09300, 3-(5-((4-(5,6,7,8-tetrahydrobenzo[4,5]thieno[2,3-d]pyrimidin-4-yl)piperazin-1-yl)methyl)-1-thioxoisoindolin-2-yl)piperidine-2,6-dione] |  |  |  |  |  |  | B (80%< substrate protein remaining %≤ 100%) | A (0% ≤ substrate protein remaining % ≤ 80%) | A (0% ≤ substrate protein remaining % ≤ 80%) | A (0% ≤ substrate protein remaining % ≤ 80%) | B (80%< substrate protein remaining %≤ 100%) | B (80%< substrate protein remaining %≤ 100%)
